Measured values reported in patent publication US20190117667A1, “ANTICANCER ACTIVITY OF PLATINUM(II) TETRASELENONE COMPLEXES” (King Fahd University of Petroleum and Minerals, priority 2017, published 2019).
Several values for one entry are separate records, joined by “and”; a condition that tells them apart may be missing. Identical values can stand only once. Like-named read-outs stand apart in the source and are kept apart here.

Tests used:
[1] = tested on: prostate carcinoma (22Rv1) cells; assay: MTT in vitro cytotoxicity assay, 22Rv1; assay type: cell-based, human; conditions: for IC50: triplicate, tested up to 50 μM, read-out: In vitro cytotoxicity IC50 ± S.D., 22RvI
Method: (§1) All the human cancer cell lines were purchased from European Collection of Cell Cultures (ECACC). The cells were cultivated according to the manufacturer's manuals and maintained in an atmosphere containing 5% CO2 in a humidified incubator at 37° C. The experimental procedure was performed according to the literature. See R. […], PLoS One, 2014, 9(9), e107373, incorporated herein by reference in its entirety. All the experiments were conducted in triplicate. The results were expressed as ICso values along with standard deviations (SD). The significance of the differences between the compared groups of results was assessed by the ANOVA analysis, with p<0.05 considered to be significant (QC Expert 3.2, Statistical software, TriloByte Ltd.). See QC Expert 3.2, Statistical software, TriloByte Ltd., Pardubice, Czech Republic. 2009, incorporated herein by reference in its entirety.

[2] = tested on: ovarian carcinoma resistant to cisplatin (A2780R) cells; assay: MTT in vitro cytotoxicity assay, A2780R; assay type: cell-based, human; conditions: triplicate, tested up to 50 μM, read-out: In vitro cytotoxicity IC50 ± S.D., A2780R
Method: as §1

[3] = tested on: human ovarian carcinoma A2780 cells; assay: MTT in vitro cytotoxicity assay, A2780; assay type: cell-based; conditions: triplicate, tested up to 50 μM
Method: as §1

[4] = ESI-MS stability and interaction with L-cysteine and reduced glutathione; assay type: physicochemical; conditions: methanol:water (1:1, v/v), complex 10 μM, Cys 290 μM, GSH 6 μM, immediately vs 24 h after preparation
Method: In order to describe the behavior of complexes in different media, i.e. to better understand their stability in protogenic media and interactions of the complexes with sulfur-containing biomolecules under physiological conditions, mass spectrometric experiments involving the interacting systems, containing the mixture of L-cysteine and reduced L-glutathione, were performed.
The electrospray-ionization mass spectrometry (ESI-MS) was used to perform the interaction experiments of the selected two cytotoxic platinum(II) complexes 4 and 5 using the ThermoLCQ Fleet Ion Trap mass spectrometer, in positive ionization mode. […] The measured solutions were injected into the mass spectrometer using the HPLC autosampler (Ultimate 3000, Dionex) in 10 μL spikes. The mass spectra were recorded in the range of 50-1400 m/z. […]
The stability in methanol:water (1:1, v/v) solutions as compared to the pure methanol and interactions of complexes in methanol:water (1:1, v/v)solutions containing the complexes 4 and 5 at the final concentrations of 10 μM and the physiological levels of L-cysteine (Cys) and L-glutathione (GSH), at 290, and 6 μM concentration, respectively, were measured by ESI+MS immediately after preparation and 24 h after preparation. […] The spectra measured immediately after preparation contained mostly the ionic species similar to those identified in reference methanol solutions. […]

[5] = tested on: human breast adenocarcinoma (MCF7) cells; assay: MTT in vitro cytotoxicity assay, MCF7; assay type: cell-based; conditions: triplicate, tested up to 50 μM, read-out: In vitro cytotoxicity IC50 ± S.D., MCF7
Method: as §1

[6] = Solubility in deuterated solvents for 195Pt NMR; assay type: physicochemical; conditions: for 195Pt NMR spectra
Method: The FTIR spectra of the ligands and their platinum(II) complexes were carried out on a Nicolet 6700 FTIR spectrophotometer using KBr pellets in the range between 4000 to 400 cm^−1. The ^1H, ^13C and ^77Se NMR spectra were recorded in DMSO-d6 on a Jeol JNM 500 NMR spectrophotometer operating at 500.01, 125.65 and 95.35 MHz respectively. The spectral conditions were; 32 K data points, 0.963 s acquisition time, 3.2 s pulse delay and a 5.75 μs pulse width for ^1H NMR, and 32 K data points, 0.963 s acquisition time, 2.0 s pulse delay and a 5.12 μs pulse width for ^13C NMR. The chemical shifts were measured relative to TMS. The ^77Se NMR chemical shifts were recorded relative to external reference (NaHSeO3 in D2O) at 1308.00 ppm, using 2.0 s pulse delay and using 0.311 s acquisition time. The ^195Pt NMR spectra were recorded in methanol-d4 using a Varian 400 MHz NMR spectrometer at 298 K. The spectra were referenced with respect to potassium tetrachloridoplatinate(II) in D2O at 0 ppm.
The ^195Pt NMR spectroscopy was also employed for thorough characterization of the prepared complexes, as the number of signals and their chemical shift in the ^195Pt NMR spectra provide efficient evidence about the purity and, also generally, the coordination environment of the metal. […]

testicular cancer = conditions: cited from earlier work
[7] = read-out: In vitro cytotoxicity IC50 ± S.D., A2780

CC(C)N1CCNC1=[Se].CC(C)N1CCNC1=[Se].CC(C)N1CCNC1=[Se].CC(C)N1CCNC1=[Se].[Cl-].[Cl-].[Pt+2] [Complex 5, [Pt(N-isopropylimidazolidine-2-selenone)4]Cl2]
IC50 [1]: > 50 µM
IC50 [2]: > 50 µM
IC50 ([3]; listed as 5, read-out: In vitro cytotoxicity IC50 ± S.D., A2780): 30.8 µM
IC50 [3, 7]: 44.7 µM
Ligand exchange reactions with L-cysteine and reduced glutathione [4]: relatively rapid
IC50 [5]: > 50 µM

[Cl-].[Cl-].[Pt+2].[Se]=C1NCCCN1.[Se]=C1NCCCN1.[Se]=C1NCCCN1.[Se]=C1NCCCN1 [Complex 6]
IC50 [1]: > 50 µM
IC50 [2]: > 50 µM
IC50 [3, 7]: > 50 µM
IC50 [5]: > 50 µM

CCCN1CCNC1=[Se].CCCN1CCNC1=[Se].CCCN1CCNC1=[Se].CCCN1CCNC1=[Se].[Cl-].[Cl-].[Pt+2] [Complex 4]
Cytotoxicity against 22Rv1 cells (in words) [1]: some cytotoxicity
IC50 [1]: 46.2 ± 3.8 µM
IC50 [2]: > 50 µM
IC50 [3, 7]: 44.7 µM and 30.8 µM
Ligand exchange reactions with L-cysteine and reduced glutathione [4]: relatively rapid
IC50 [5]: > 50 µM

[Cl-].[Cl-].[Pt+2].[Se]=C1NCCN1.[Se]=C1NCCN1.[Se]=C1NCCN1.[Se]=C1NCCN1 [Complex 2]
IC50 [1]: > 50 µM
IC50 [2]: > 50 µM
IC50 [3, 7]: > 50 µM
IC50 [5]: > 50 µM
Solubility in methanol-d4 and deuterated N,N-dimethylformamide [6]: insufficient solubility

[Cl-].[Cl-].[Pt+2].[Se]=C1NCCCCN1.[Se]=C1NCCCCN1.[Se]=C1NCCCCN1.[Se]=C1NCCCCN1 [Complex 7]
IC50 [1]: > 50 µM
IC50 [2]: > 50 µM
IC50 [3, 7]: > 50 µM
IC50 [5]: > 50 µM

N.N.[Cl][Pt][Cl] [Cisplatin]
Cure rate in testicular cancer (testicular cancer; treatment of testicular cancer): over 90%
Cure rate in testicular cancer, tumors discovered early (testicular cancer; when tumors are discovered early): ~100%

NC(N)=[Se].NC(N)=[Se].NC(N)=[Se].NC(N)=[Se].[Cl-].[Cl-].[Pt+2] [Complex 1]
Solubility in methanol-d4 and deuterated N,N-dimethylformamide [6]: insufficient solubility

CCN1CCNC1=[Se].CCN1CCNC1=[Se].CCN1CCNC1=[Se].CCN1CCNC1=[Se].[Cl-].[Cl-].[Pt+2] [Complex 3, [Pt(N-ethylimidazolidine-2-selenone)4]Cl2]
IC50 [1]: > 50 µM
IC50 [2]: > 50 µM
IC50 [3, 7]: > 50 µM
IC50 [5]: > 50 µM
